Data from patent US12636368B2, “Ionizable lipids for nucleic acid delivery” (Global Life Sciences Solutions Canada ULC, priority 2019, dated 2026).
Like-named read-outs stand apart in the source and are kept apart here.

How the values were obtained:
[1] = TNS assay, surface pKa of lipid nanoparticles; format: physicochemical
Experimental: In embodiments of the invention, the experimental pKa of formulated lipid nanoparticles comprising lipids in Table 1 is calculated using the 2-(p-toluidinyl)naphthalene-6-sulfonic acid (TNS) assay. The procedure for the TNS assay is described in Example 25.
The pKa of each cationic lipid was determined in lipid nanoparticles using an assay based on fluorescence of 6-(p-Toluidino)-2-naphthalenesulfonic acid sodium salt (TNS, Sigma Aldrich), which is a fluorescent probe for the conformational state of proteins5. Empty lipid nanoparticles comprising ionizable lipid in LM02 composition in distilled water at a concentration of 3.125 mM total lipid are formulated using NanoAssemblr® Spark™, and were then was characterized for LNP quality on the Zetasizer™ using a 30× dilution with 1×PBS in the low volume cuvette. Lipid nanoparticles were further diluted 4× using distilled water to 0.781 mM total lipid. TNS was prepared as a 25 μM stock solution in distilled water. Then 6.4 μL of diluted LNP samples of 0.781 mM total lipid were mixed with 10 μL of diluted TNS to a final volume of 250 μL with buffer containing 10 mM HEPES, 10 mM MES, 10 mM NH4OAc and 130 mM NaCl where the pH ranged from 3 to 9 in 0.5 pH increments.
Samples were mixed thoroughly, and the fluorescence intensity was measured at room temperature in a BioTek™ Synergy™ H1 Hybrid Multi-Mode Monochromator™ Fluorescence Microplate Reader using excitation and emission wavelengths of 321 nm and 445 nm respectively. A sigmoidal best fit analysis was applied to the fluorescence data using GraphPad Prism™ software, and the pKa was measured as the pH at half-maximal fluorescence intensity.

[2] = Nucleic acid encapsulation efficiency by RiboGreen assay; format: physicochemical
Experimental: Messenger RNA or plasmid NAT was diluted using sodium acetate buffer to the required concentration. Lipid nucleic acid particle samples were then prepared by running both fluids using the NanoAssemblr® Spark instrument. […] The lipid nucleic acid particles made in the instrument were immediately diluted down with 48 μL Ca and Mg free 1×PBS at pH 7.4 in the aqueous output well. These nucleic acid lipid particles were immediately collected into microcentrifuge tubes containing 96 μL of Ca and Mg free 1×PBS at pH 7.4. Encapsulation efficiency was measured by a modified Ribogreen™ assay (Quanti-iT RiboGreen™ RNA assay kit, Fisher). Observed particle attributes were generally sized from 60-200 nm for mRNA, depending on lipid composition and method of production.
(§1) Physical characteristics of lipid nanoparticle (LNP) compositions comprising compounds according to Formula (I) and that were manufactured on the NanoAssemblr® Spark and Benchtop, are shown in Tables 6 and 7 below. Size, size variation of the LNP (PDI), encapsulation efficiency, and pKa are shown. The physical characteristics of these LNP are important from a standpoint of stability, biodistribution, and cell membrane crossing. There was good encapsulation in all the formulations, with polydispersity (PDI) under 0.3. Size and PDI were measured using dynamic light scattering techniques, and nucleic acid encapsulation efficiency was calculated from a modified Quant-iT RiboGreen RNA assay.

[3] = LNP size and PDI by dynamic light scattering; format: physicochemical
Experimental: After the lipid particles were made as described supra, particle size (hydrodynamic diameter of the particles) was determined by Dynamic Light Scattering (DLS) using a ZetaSizer™ Nano ZS™ (Malvern Instruments, UK). He/Ne laser tuned to 633 nm wavelength was used as the light source. Data were measured from the scattered intensity data conducted in backscattering detection mode (measurement angle=173). Measurements were an average of 10 runs of two cycles each per sample. Z-Average size was reported as the particle size, and is defined as the harmonic intensity averaged particle diameter.
as §1

[4] = test system: isolated primary human T cells; test: GFP mRNA-LNP transfection of primary human T cells, flow cytometry; format: cell-based; settings: for GFP Protein expression score: Human T cell: Table 8, star score, legend not given
Experimental: Reagents were from Stemcell Technologies unless otherwise stated. Tcells were isolated from a single donor. At 48 h following lipid particle mRNA exposure, the treated T cells were harvested by transferring the cell suspensions to pre-labeled 1.5 mL tubes and centrifuged 300×g at 4 degrees C. for 10 minutes. Supernatant was removed and the pellet resuspended in PBS. An amount of 0.5 ul of BD Horizon™ Fixable Viability Stain 575V™ (BD Biosciences), was added, and the mixture incubated in the dark for 10 minutes at RT. This stain binds to amines.
The cells were centrifuged again as before, then washed twice with 1 mL of stain buffer (BSA, BD Pharminigen), and the washed pellet was diluted in 100 μl BSA. The following antibodies were added to each tube of treated cells in 2 μl volumes: CD25, CD8, CD4, (PerCP-Cy™ 5.5 Mouse Anti Human CD25, BV786 Mouse Anti-Human CD8 Clone RPA-T8, APC-Cy™7 Mouse Anti-Human CD4 Clone SK3 (all from BD Pharmingen) with the exception of the controls: in the eGFP only sample and viability control, no antibody was added. In the single stain compensation tubes, only one antibody per tube was added.
The tubes were incubated at 4 degrees C. for 30 min, whereupon […] of stain buffer was added, and the cells were centrifuged again. Cells were washed once with 1 mL of stain buffer and spun down again as in step one. Cell pellets were resuspended in 1 mL of stain buffer and added to pre-labeled flow tubes with cell strainer caps (Corning Falcon). […]
GFP MFI was measured by flow cytometry 48 hours after LNP addition. T cells were isolated from whole blood using a negative isolation procedure (EasySep™ Human T Cell Isolation Kit, Stemcell Technologies). T cells were dosed with mRNA-LNPs 3 days after activation with 500 ng of encapsulated mRNA per 125,000 cells. The LNP were CT10 compositions with an N/P of 8. Transfection efficiency (upper graph) and MFI (lower graph) were measured by flow cytometry 48 h after LNP addition.

[5] = Table 1, formulated lipid nanoparticles, TNS assay, read-out: Exp. pKa
[6] = Table 6, GFP-encoded LNPs, CT10, N/P 8
[7] = Table 7, EPO mRNA LNPs, LM02, N/P 6

Structure (SMILES)	pKa [1, 5]	pKa ([1]; Table 8, read-out: Exp.pKa)	Encapsulation Efficiency (%) [2, 7] [%]	Diameter (Z. ave, nm) [3, 7] [nm]	Polydispersity Index (PDI) [3, 7]	also measured
CCCCCCCCCCCCCC(=O)O[C@@H]1[C@@H](OC(=O)CCCCCCCCCCCCC)CO[C@@H]1COC(=O)CCN(C)C [PNI 344]	6.93	6.93				
CCCCCCCCCCCC(=O)O[C@@H]1[C@@H](OC(=O)CCCCCCCCCCC)CO[C@@H]1COC(=O)CCN(C)C (racemic) [PNI 534]	6.42	5.97	89.4	75.0	0.15	Encapsulation Efficiency (%) [2, 6]: 49.3%; Diameter (Z. ave, nm) [3, 6]: 107.1 nm; Polydispersity Index (PDI) [3, 6]: 0.29
CCCCCCCCC(CCCCCC)C(=O)O[C@@H]1[C@@H](OC(=O)C(CCCCCC)CCCCCCCC)CO[C@@H]1COC(=O)C1(C)CCN(C)CC1 (stereo in doubt) [PNI 579]	5.32					
CCCCC/C=C\C/C=C\CCCCCCCC(=O)O[C@@H]1[C@@H](OC(=O)CCCCCCC/C=C\C/C=C\CCCCC)CO[C@@H]1COC(=O)CCCCN(C)C (racemic) [PNI 122]	7.45	7.45	99.3	102.4	0.15	GFP Protein expression score: Human T cell [4]: Toxic
CCCCCCCCC1CC1CCCCCCCC(=O)O[C@@H]1[C@@H](OC(=O)CCCCCCCC2CC2CCCCCCCC)CO[C@@H]1COC(=O)CCN(C)C (mixture of isomers) [PNI 342]	6.11	6.11	97.2	58.2	0.04	
CCCCC/C=C\C/C=C\CCCCCCCC(=O)O[C@@H]1[C@@H](OC(=O)CCCCCCC/C=C\C/C=C\CCCCC)CO[C@@H]1COC(=O)CC1CCN(C)C1 (mixture of isomers) [PNI 538]	6.79	6.79	98.7	67.0	0.11	
CCCCCCCCC(CCCCCC)C(=O)O[C@@H]1[C@@H](OC(=O)C(CCCCCC)CCCCCCCC)CO[C@@H]1COC(=O)CCN(C)C (mixture of isomers) [PNI 535]	4.99	4.99	82.2	54.2	0.11	Encapsulation Efficiency (%) [2, 6]: 91.7%; GFP Protein expression score: Human T cell [4]: Not Active; Diameter (Z. ave, nm) [3, 6]: 133.1 nm; Polydispersity Index (PDI) [3, 6]: 0.07
CCCCC/C=C\C/C=C\CCCCCCCC(=O)O[C@H]1COC(COC(=O)CN2CCN(C)CC2)[C@@H]1OC(=O)CCCCCCC/C=C\C/C=C\CCCCC (mixture of isomers) [PNI 574]	6.66					
CCCCCCCCC1CC1CCCCCCCC(=O)O[C@@H]1[C@@H](OC(=O)CCCCCCCC2CC2CCCCCCCC)CO[C@@H]1COC(=O)C1(C)CCN(C)CC1 (mixture of isomers) [PNI 541]	6.46	6.46	97.1	73.8	0.06	Encapsulation Efficiency (%) [2, 6]: 73.5%; amount of protein produced (MFIs) compared with MC3 [4]: better than MC3; protein expression (GFP MFI) compared with MC3 ([4]; FIG. 5, CT10, N/P 8, 500 ng mRNA per 125,000 cells, 3 days after activation, 48 h): higher levels of protein expression than MC3; amount of protein produced (MFI) in human T cells compared with MC3 ([4]; summary): better than MC3; Diameter (Z. ave, nm) [3, 6]: 109.4 nm; Polydispersity Index (PDI) [3, 6]: 0.28
CCCCCCCCC1CC1CCCCCCCC(=O)O[C@@H]1[C@@H](OC(=O)CCCCCCCC2CC2CCCCCCCC)CO[C@@H]1COC(=O)C1CCN(C2CC2)CC1 (stereo in doubt) [PNI 576]	4.24					
CCCCC/C=C\C/C=C\CCCCCCCC(=O)O[C@@H]1[C@@H](OC(=O)CCCCCCC/C=C\C/C=C\CCCCC)CO[C@@H]1COC(=O)CCN(C)C (racemic) [PNI 321]	5.62	5.62	94.9	60.0	0.09	Encapsulation Efficiency (%) [2, 6]: 92.4%; Diameter (Z. ave, nm) [3, 6]: 68.6 nm; Polydispersity Index (PDI) [3, 6]: 0.07
CCCCCCCCC1CC1CCCCCCCC(=O)O[C@@H]1[C@@H](OC(=O)CCCCCCCC2CC2CCCCCCCC)CO[C@@H]1COC(=O)CC1CCCCN1C (stereo in doubt) [PNI 578]	5.87					
CCCCCC/C=C\COC(=O)CCCCCCC(=O)O[C@@H]1[C@@H](OC(=O)CCCCCCC(=O)OC/C=C\CCCCCC)CO[C@@H]1COC(=O)CCN(C)C [PNI 532]	5.97	5.97	37.3	144.3	0.15	
CCCCCCCCCCCCCC(=O)O[C@@H]1[C@@H](OC(=O)CCCCCCCCCCCCC)CO[C@@H]1COC(=O)CCCCN(C)C (racemic) [PNI 120]	7.71	7.7				GFP Protein expression score: Human T cell [4]: Toxic
CCCCC/C=C\C/C=C\CCCCCCCC(=O)O[C@H]1COC(COC(=O)C2CCCN(C)C2)[C@@H]1OC(=O)CCCCCCC/C=C\C/C=C\CCCCC (stereo in doubt) [PNI 575]	5.51					
CCCCC/C=C\C/C=C\CCCCCCCC(=O)O[C@H]1COC(COC(=O)C23CCN(CC2)CC3)[C@@H]1OC(=O)CCCCCCC/C=C\C/C=C\CCCCC (stereo in doubt) [PNI 573]	7.79					
CCCCCCCCC(CCCCCC)C(=O)O[C@@H]1[C@@H](OC(=O)C(CCCCCC)CCCCCCCC)CO[C@@H]1COC(=O)CCCN(C)C (stereo in doubt) [PNI 580]	5.69					
CC/C=C\CC1C(CC(=O)OCCC(CCCCCCCC)OC(=O)C(CCCCCC)CCCCCCCC)CCC1OC(=O)C1(C)CCN(C)CC1 (stereo not shown) [PNI-565]						amount of protein produced (MFIs) compared with MC3 [4]: better than MC3
CCCCCCCCC1CC1CCCCCCCC(=O)O[C@@H]1[C@@H](OC(=O)CCCCCCCC2CC2CCCCCCCC)CO[C@@H]1COC(=O)C1CCN(CC)CC1 (stereo in doubt) [PNI 577]	6.45					
CCCCC/C=C\C/C=C\CCCCCCCC(=O)O[C@@H]1[C@@H](OC(=O)CCCCCCC/C=C\C/C=C\CCCCC)CO[C@@H]1COC(=O)Cc1cn(C)cn1 (racemic) [PNI 336]	4.57	4.57	89.8	64.3	0.06	Encapsulation Efficiency (%) [2, 6]: 86.6%; Diameter (Z. ave, nm) [3, 6]: 79.6 nm; Polydispersity Index (PDI) [3, 6]: 0.07
